Consider 46 molecules from the Biogen ADME set (Fang et al. 2023).

≈ marks a conversion by molar mass, not a printed value. A value given as a limit tells only on which side of the number the result lay.

For this series the following is noted: for aqueous solubility: pH 6.8.

On to `O=C(NCCc1cnn(-c2ccccc2)c1)N1CCC1`, for which the MDR1-MDCK efflux ratio turned out to be 1.34; the intrinsic clearance, human liver microsomes is at most 4.74 mL/min/kg; the intrinsic clearance, rat liver microsomes stood at 54.8 mL/min/kg; the aqueous solubility turned out to be 39.6 µg/mL (≈ 146 µM).

`Cc1nc(Cn2nnnc2C(C)(C)C)nc2ccccc12` yielded an intrinsic clearance, human liver microsomes of 7.42 mL/min/kg and an intrinsic clearance, rat liver microsomes of 724 mL/min/kg.

`CC(C)(C)OC(=O)c1ccc(-n2[nH]cc(-n3ccnn3)c2=O)nc1`: the MDR1-MDCK efflux ratio turned out to be 1.19; the intrinsic clearance, human liver microsomes is at most 4.74 mL/min/kg; the intrinsic clearance, rat liver microsomes amounted to 20.7 mL/min/kg.

In the case of `O=C(NNc1ccccc1)c1ccncc1`, the MDR1-MDCK efflux ratio was found to be 0.738.

In the case of `Cc1cccc(NC(=O)CN(C)c2ncccc2F)n1`, the MDR1-MDCK efflux ratio stood at 0.657; the intrinsic clearance, human liver microsomes was 16.2 mL/min/kg; the intrinsic clearance, rat liver microsomes was 404 mL/min/kg; the aqueous solubility amounted to 36.8 µg/mL (≈ 134 µM).

For the molecule `O=C(Nc1nc(-c2cccnc2)cs1)C1CCCCC1`, the MDR1-MDCK efflux ratio came to 0.497 and the aqueous solubility was 0.21 µg/mL (≈ 0.731 µM).

As for `Cc1cc(C)c(NC(=O)c2cc(Cl)ccc2F)c(C)n1`, the MDR1-MDCK efflux ratio is 0.756; the intrinsic clearance, human liver microsomes turned out to be 8.2 mL/min/kg; the intrinsic clearance, rat liver microsomes was 40 mL/min/kg; the aqueous solubility came to 62.8 µg/mL (≈ 215 µM).

For `CC(C)c1ccc2c(c1)[C@H](NC(=O)Cn1ccnn1)CCC2`, the MDR1-MDCK efflux ratio is 3.4; the intrinsic clearance, human liver microsomes turned out to be 88.8 mL/min/kg; the intrinsic clearance, rat liver microsomes came to 297 mL/min/kg; the aqueous solubility came out at 12.6 µg/mL (≈ 42.1 µM).

With `COc1c(C)cccc1CN1CCC(O)(c2ccc(F)cc2)CC1`, the MDR1-MDCK efflux ratio is 0.581; the intrinsic clearance, human liver microsomes was 27.8 mL/min/kg; the intrinsic clearance, rat liver microsomes stood at 1280 mL/min/kg; the aqueous solubility turned out to be 39.7 µg/mL (≈ 121 µM).

Regarding `COc1cc2nc(-c3ccc(N4CCN(C)CC4)cc3)nc(NCCN3CCOCC3)c2cc1OC`, the intrinsic clearance, human liver microsomes was determined as 8.7 mL/min/kg and the intrinsic clearance, rat liver microsomes stood at 90.9 mL/min/kg.

`O=C(COC(=O)c1cc(O)nc2ccccc12)c1ccc(Oc2c(Cl)cccc2[N+](=O)[O-])cc1` registered an intrinsic clearance, human liver microsomes of 986 mL/min/kg and an intrinsic clearance, rat liver microsomes of 184 mL/min/kg.

As for `Cc1nc(Cl)cc(Nc2ccc3c(c2)N(C)C(=O)CO3)n1`, the MDR1-MDCK efflux ratio amounted to 0.746; the intrinsic clearance, human liver microsomes worked out at 34.6 mL/min/kg; the intrinsic clearance, rat liver microsomes turned out to be 63.2 mL/min/kg; the aqueous solubility was found to be 30 µg/mL (≈ 98.5 µM).

In the case of `CCc1c(O)cc(O)c(C(=O)c2ccc(OCCN3CCOCC3)c(OC)c2)c1CC(=O)N(CCOC)CCOC`, the MDR1-MDCK efflux ratio was 7.53; the intrinsic clearance, human liver microsomes amounted to 28.1 mL/min/kg; the intrinsic clearance, rat liver microsomes was 209 mL/min/kg.

Regarding `c1ccc(CCn2cnc3c2CCN(c2ncccn2)C3)cc1`, the MDR1-MDCK efflux ratio worked out at 0.802; the intrinsic clearance, human liver microsomes is 206 mL/min/kg; the intrinsic clearance, rat liver microsomes is 2510 mL/min/kg; the aqueous solubility turned out to be 41 µg/mL (≈ 134 µM).

With `CCOC(=O)c1c(C)n(C)c2ccc(O)cc12`, the intrinsic clearance, human liver microsomes is 30.8 mL/min/kg and the intrinsic clearance, rat liver microsomes is 166 mL/min/kg.

Molecule `CONC(=O)c1ccccc1Nc1cc(Nc2cc(C)nn2C(C)C)ncc1Cl` had an intrinsic clearance, human liver microsomes of 66.2 mL/min/kg; an intrinsic clearance, rat liver microsomes of 262 mL/min/kg; an aqueous solubility of 24.2 µg/mL (≈ 58.4 µM).

Regarding `O=C(Nc1ccc(F)cc1)[C@H](O)c1ccccc1`, the aqueous solubility amounted to 42.9 µg/mL (≈ 175 µM).

With `CCN(CCO)Cc1nc2cc(OC)c(OC)cc2c(=O)[nH]1`, the MDR1-MDCK efflux ratio came out at 31.2; the intrinsic clearance, human liver microsomes is at most 4.74 mL/min/kg; the intrinsic clearance, rat liver microsomes is at most 10.7 mL/min/kg.

Take `CONC(=O)c1cn(-c2ccc(Br)cc2)cn1`: the intrinsic clearance, human liver microsomes was at most 4.74 mL/min/kg; the intrinsic clearance, rat liver microsomes stood at 463 mL/min/kg; the aqueous solubility came to 63.6 µg/mL (≈ 215 µM).

In the case of `COc1ccc(OCC(=O)N2CCN(C)CC2)cc1`, the MDR1-MDCK efflux ratio amounted to 0.763; the intrinsic clearance, human liver microsomes is at most 4.74 mL/min/kg; the intrinsic clearance, rat liver microsomes was 133 mL/min/kg; the aqueous solubility stood at 52.5 µg/mL (≈ 199 µM).

Consider `CN1C(N)=N[C@](C)(c2cc(NC(=O)c3ccc(F)cn3)ccc2F)CS1(=O)=O`, for which the MDR1-MDCK efflux ratio worked out at 93.4; the fraction unbound, human plasma is 0.363; the fraction unbound, rat plasma is 0.31; the intrinsic clearance, human liver microsomes was at most 4.74 mL/min/kg. The molecule further showed an intrinsic clearance, rat liver microsomes of 82.3 mL/min/kg.

Consider `O[C@@H]1CO[C@H]2C[C@@H]1Nc1c(-c3ccccc3)cccc12`, for which the MDR1-MDCK efflux ratio amounted to 0.599; the intrinsic clearance, human liver microsomes was found to be 15 mL/min/kg; the intrinsic clearance, rat liver microsomes came to 367 mL/min/kg; the aqueous solubility was found to be 17 µg/mL (≈ 63.6 µM).

`COc1ccc(-c2ccc(CN(CCN(C)C)Cc3ccncc3)cc2)cc1`: the MDR1-MDCK efflux ratio worked out at 2.06; the intrinsic clearance, human liver microsomes stood at 31.9 mL/min/kg; the intrinsic clearance, rat liver microsomes came to 465 mL/min/kg; the aqueous solubility amounted to 55.8 µg/mL (≈ 149 µM).

Regarding `Cc1noc([C@@H]2C[C@H](NC(=O)c3ccc(F)cc3)CN2C)n1`, the MDR1-MDCK efflux ratio turned out to be 0.792; the intrinsic clearance, human liver microsomes worked out at 6.88 mL/min/kg; the intrinsic clearance, rat liver microsomes worked out at 16.3 mL/min/kg; the aqueous solubility came to 16.2 µg/mL (≈ 53.2 µM).

The molecule `Cc1cccnc1NC(=O)CCc1ccc(F)cc1` gave an intrinsic clearance, human liver microsomes of 6.88 mL/min/kg; an intrinsic clearance, rat liver microsomes of 764 mL/min/kg; an aqueous solubility of 38.1 µg/mL (≈ 147 µM).

Turning to `Cc1c[nH]c(=O)n1-c1ccc(C(=O)Nc2ccc3ccccc3n2)cc1`, the MDR1-MDCK efflux ratio turned out to be 10.2; the fraction unbound, human plasma is 0.0436; the intrinsic clearance, human liver microsomes was determined as 8.88 mL/min/kg; the intrinsic clearance, rat liver microsomes turned out to be 49.4 mL/min/kg. The molecule also returned an aqueous solubility of 5.9 µg/mL (≈ 17.1 µM).

Consider `N#CC1(C(=O)N2CCN(Cc3ccccn3)CC2)CCCCC1`, for which the MDR1-MDCK efflux ratio is 1.11; the intrinsic clearance, human liver microsomes was 10.7 mL/min/kg; the intrinsic clearance, rat liver microsomes worked out at 805 mL/min/kg; the aqueous solubility turned out to be 52.1 µg/mL (≈ 167 µM).

Consider `c1ccc(-c2n[nH]c(C3CCN(c4ccccn4)CC3)n2)cc1`, for which the MDR1-MDCK efflux ratio was found to be 0.974; the intrinsic clearance, human liver microsomes was determined as 15.8 mL/min/kg; the intrinsic clearance, rat liver microsomes is 440 mL/min/kg; the aqueous solubility worked out at 34.4 µg/mL (≈ 113 µM).

With `CCCN(CCC1=CCCCC1)C(=O)Cc1n[nH]c(=O)[nH]1`, the MDR1-MDCK efflux ratio turned out to be 11.3; the intrinsic clearance, human liver microsomes is at most 4.74 mL/min/kg; the intrinsic clearance, rat liver microsomes is 1270 mL/min/kg.

Consider `Cc1nc2cc(C(=O)N3CCc4nc5ccccc5c(=O)n4CC3)ccc2n1C`, for which the intrinsic clearance, human liver microsomes was at most 4.74 mL/min/kg; the intrinsic clearance, rat liver microsomes was 24.7 mL/min/kg; the aqueous solubility amounted to 67.3 µg/mL (≈ 174 µM).

In the case of `c1cc(CNc2ncc(-c3cnccn3)c(C3CC3)n2)ccn1`, the MDR1-MDCK efflux ratio amounted to 1.35; the intrinsic clearance, human liver microsomes is 25 mL/min/kg; the intrinsic clearance, rat liver microsomes stood at 1310 mL/min/kg.

On to `O=C(Nc1cccc2cnccc12)c1cccc(F)c1`, for which the intrinsic clearance, human liver microsomes was 34.9 mL/min/kg; the intrinsic clearance, rat liver microsomes was determined as 132 mL/min/kg; the aqueous solubility was found to be 47.6 µg/mL (≈ 179 µM).

`COc1cc(OC)cc(N2CCC(NCC3(C)CCOCC3)CC2)c1`: the MDR1-MDCK efflux ratio was determined as 1.55; the intrinsic clearance, human liver microsomes was at most 4.74 mL/min/kg; the intrinsic clearance, rat liver microsomes was found to be 58.2 mL/min/kg.

Regarding `C[C@@H](C(=O)N1CCCC1)N1CCC(n2c(=O)[nH]c3ccccc32)CC1`, the MDR1-MDCK efflux ratio was determined as 162; the intrinsic clearance, human liver microsomes was at most 4.74 mL/min/kg; the intrinsic clearance, rat liver microsomes came out at 64.5 mL/min/kg; the aqueous solubility worked out at 40.6 µg/mL (≈ 119 µM).

On to `O=C(Nc1ccc(CN2CCCCC2)cc1)c1ccnc2[nH]cnc12`, for which the MDR1-MDCK efflux ratio amounted to 9.09; the fraction unbound, human plasma stood at 0.586; the intrinsic clearance, human liver microsomes was 7.73 mL/min/kg.

For the molecule `CC(=O)NCCNc1cc(Cl)nn2c(-c3cccc(S(=O)(=O)N(C)C)c3)c(C)nc12`, the MDR1-MDCK efflux ratio came to 67.7; the fraction unbound, human plasma is 0.048; the intrinsic clearance, human liver microsomes is 228 mL/min/kg; the intrinsic clearance, rat liver microsomes is 797 mL/min/kg. This molecule also gave an aqueous solubility of 45.8 µg/mL (≈ 102 µM).

For `CC(C)c1cc(NC(=O)Cn2nc(-c3ccccc3)ccc2=O)[nH]n1`, the aqueous solubility amounted to 6.51 µg/mL (≈ 19.3 µM).

`c1ccc(N2CCOCC2)c(CNc2cc(N3CCCC3)ncn2)c1`: the MDR1-MDCK efflux ratio was determined as 2.09; the intrinsic clearance, human liver microsomes came out at 190 mL/min/kg; the intrinsic clearance, rat liver microsomes stood at 1520 mL/min/kg.

On to `COc1cc2c(cc1OC)-c1[nH]nc(NCc3c(Cl)cccc3Cl)c1C2=O`, for which the MDR1-MDCK efflux ratio turned out to be 3.05 and the aqueous solubility was 0.29 µg/mL (≈ 0.717 µM).

For the molecule `Cn1c(CNC(=O)Cc2ccccc2)nc2ccccc21`, the MDR1-MDCK efflux ratio was 2.25; the intrinsic clearance, human liver microsomes was 7.54 mL/min/kg; the intrinsic clearance, rat liver microsomes amounted to 89.6 mL/min/kg; the aqueous solubility is 44.8 µg/mL (≈ 160 µM).

Take `CC(=O)NCCCOc1ccc(CN2C[C@H](Oc3cccc(C)c3)[C@@H](O)C2)cc1`: the MDR1-MDCK efflux ratio stood at 31.2; the intrinsic clearance, human liver microsomes amounted to 12.1 mL/min/kg; the intrinsic clearance, rat liver microsomes came out at 553 mL/min/kg; the aqueous solubility amounted to 44.9 µg/mL (≈ 113 µM).

In the case of `CC(=O)NCCOc1ccc2ccccc2n1`, the intrinsic clearance, human liver microsomes was found to be 12.9 mL/min/kg and the intrinsic clearance, rat liver microsomes was 89.1 mL/min/kg.

Take `Cc1ccc2nc3c(c(C(=O)NCc4nnc5n4CCC5)c2c1)CCCC3`: the MDR1-MDCK efflux ratio came to 32.9; the intrinsic clearance, human liver microsomes was at most 4.74 mL/min/kg; the intrinsic clearance, rat liver microsomes is 28.8 mL/min/kg; the aqueous solubility amounted to 57.1 µg/mL (≈ 158 µM).

In the case of `Cc1sc(NC(=O)CN2CCOC(C3CCCO3)C2)c(C)c1C` (stereo not given), the MDR1-MDCK efflux ratio was 1; the intrinsic clearance, human liver microsomes came out at 12.8 mL/min/kg; the intrinsic clearance, rat liver microsomes is 185 mL/min/kg; the aqueous solubility came out at 60.9 µg/mL (≈ 180 µM).

As to `O=c1cc2c(n[nH]1)-c1cnc(N3CCCC3)nc1CC2`, the MDR1-MDCK efflux ratio was determined as 0.748; the intrinsic clearance, human liver microsomes turned out to be 6.66 mL/min/kg; the intrinsic clearance, rat liver microsomes was found to be 103 mL/min/kg.

Turning to `O=C(O)c1nc(-c2ccccc2)oc1-c1ccccc1`, the MDR1-MDCK efflux ratio came to 0.802; the intrinsic clearance, human liver microsomes is 6.99 mL/min/kg; the intrinsic clearance, rat liver microsomes is at most 10.7 mL/min/kg; the aqueous solubility was found to be 40.8 µg/mL (≈ 154 µM).
